Read-outs that look alike come from different tables or passages of the source.
Assays:
Format in all cases: cell-based
E. faecium A2373 = experiment: MIC of antibiotics with or without PAG/AOAA
Description: (§1) E. faecalis (ATCC 29212) cultures were prepared at initial inoculums of ˜5×10^5 CFU/ml in Mueller-Hinton II Broth (cation-adjusted). Aliquots of 190 μl were dispensed to each well of a fresh set of plates, and 10 μl of an antibiotic solution (levofloxacin, meropenem, gentamicin, piperacillin, linezolid, cefepime, daptomycin, vancomycin, or chloramphemicol) were transferred to the corresponding wells in each bacterial plate (FIG. 13). For each antibiotic, the starting concentration was 2×MIC (minimum inhibitory concentration) with serial ½ dilutions. Two sets of dilutions were prepared, and to one of them 0.1 mM AOAA was added. The resulting plates were kept at 37° C. and 85% humidity for 20 hours. All nine antibiotics tested were potentiated by AOAA, with respective MICs dropped from 8-fold to 32-fold (FIG. 13).
(§2) Minimum inhibitory concentration (MIC) determination was conducted as described in Example 7, above. To assess antibiotic potentiation by AOAA and PAG, MIC was determined for nine antibiotics (levofloxacin, meropenem, gentamicin, piperacillin, linezolid, cefepime, daptomycin, vancomycin, and chloramphemicol) and four bacterial strains (E. faecium (A2373), E. faecalis ([…]), S. pneumoniae (ATCC 49619), and P. aeruginosa (PAO1)) in the presence of antibiotic alone, 1 mM PAG, 0.1 mM AOAA, or 0.5 mM PAG+0.05 mM AOAA. The smaller the MIC value, the stronger the effect of antibiotic potentiation.

E. faecalis ATCC29212 = experiment: MIC of antibiotics with or without PAG/AOAA
Description: Bacterial cultures were prepared at initial inoculums of ˜5×10^5 CFU/ml, and aliquots of 190 μl per well were dispensed. Ten μl of the indicated antibiotic solutions were added to each well. The starting concentration for each antibiotic solution was 2×MIC, with serial ½ dilutions. Two sets of dilutions were prepared, and 0.1 mM AOAA was added to one set. The plates were kept at 37° C. and 85% humidity for 20 hours.
as §1, §2

P. aeruginosa PAO1 = experiment: MIC of antibiotics with or without PAG/AOAA
Description: as §2

S. pneumoniae ATCC49619 = experiment: MIC of antibiotics with or without PAG/AOAA
Description: as §2

[1] = system: E. coli ΔsseA (3MST-deficient) strain
[2] = in the presence of 0.5 mM PAG + 0.05 mM AOAA
[3] = Table 1, relative values of growth inhibition (negative numbers), ΔsseA vs wt E. coli

Compound | ΔsseA inhibition of growth [1, 3] | further results
C[C@@H](O)[C@H]1C(=O)N2C(C(=O)O)=C(S[C@@H]3CN[C@H](C(=O)N(C)C)C3)[C@H](C)[C@H]12 [Meropenom, meropenem] |  | Minimum inhibitory concentration (E. faecium A2373; antibiotic alone): >64 µg/mL; Minimum inhibitory concentration (E. faecium A2373; in the presence of 0.1 mM AOAA): 6 µg/mL; Minimum inhibitory concentration (E. faecium A2373; [2]): >64 µg/mL; Minimum inhibitory concentration (E. faecium A2373; in the presence of 1 mM PAG): >64 µg/mL; Minimum inhibitory concentration (E. faecalis ATCC29212; antibiotic alone): 4 µg/mL; Minimum inhibitory concentration (E. faecalis ATCC29212; in the presence of 0.1 mM AOAA): 0.25 µg/mL; Minimum inhibitory concentration (E. faecalis ATCC29212; [2]): 1 µg/mL; Minimum inhibitory concentration (E. faecalis ATCC29212; in the presence of 1 mM PAG): 4 µg/mL; Minimum inhibitory concentration (P. aeruginosa PAO1; antibiotic alone): 1 µg/mL; Minimum inhibitory concentration (P. aeruginosa PAO1; in the presence of 0.1 mM AOAA): 0.5 µg/mL; Minimum inhibitory concentration (P. aeruginosa PAO1; [2]): 0.5 µg/mL; Minimum inhibitory concentration (P. aeruginosa PAO1; in the presence of 1 mM PAG): 0.5 µg/mL; Minimum inhibitory concentration (S. pneumoniae ATCC49619; antibiotic alone): 0.125 µg/mL; Minimum inhibitory concentration (S. pneumoniae ATCC49619; in the presence of 0.1 mM AOAA): 0.063 µg/mL; Minimum inhibitory concentration (S. pneumoniae ATCC49619; [2]): 0.063 µg/mL; Minimum inhibitory concentration (S. pneumoniae ATCC49619; in the presence of 1 mM PAG): 0.063 µg/mL
CC(=O)NC[C@H]1CN(c2ccc(N3CCOCC3)c(F)c2)C(=O)O1 [Linezold, linezolid] |  | MIC (E. faecium A2373; Enterococcus faecium, A2373, antibiotic alone, read-out: Minimum inhibitory concentration): 4 µg/mL; Minimum inhibitory concentration (E. faecium A2373; in the presence of 0.1 mM AOAA): 2 µg/mL; Minimum inhibitory concentration (E. faecium A2373; [2]): 4 µg/mL; Minimum inhibitory concentration (E. faecium A2373; in the presence of 1 mM PAG): 4 µg/mL; MIC (E. faecalis ATCC29212; Enterococcus faecalis, ATCC29212, antibiotic alone, read-out: Minimum inhibitory concentration): 4 µg/mL; Minimum inhibitory concentration (E. faecalis ATCC29212; in the presence of 0.1 mM AOAA): 0.25 µg/mL; Minimum inhibitory concentration (E. faecalis ATCC29212; [2]): 2 µg/mL; Minimum inhibitory concentration (E. faecalis ATCC29212; in the presence of 1 mM PAG): 4 µg/mL; MIC (P. aeruginosa PAO1; Pseudomonas aeruginosa, PAO1, antibiotic alone, read-out: Minimum inhibitory concentration): > 64 µg/mL; Minimum inhibitory concentration (P. aeruginosa PAO1; in the presence of 0.1 mM AOAA): >64 µg/mL; Minimum inhibitory concentration (P. aeruginosa PAO1; [2]): >64 µg/mL; Minimum inhibitory concentration (P. aeruginosa PAO1; in the presence of 1 mM PAG): >64 µg/mL; MIC (S. pneumoniae ATCC49619; Streptococcus pneumoniae, ATCC49619, antibiotic alone, read-out: Minimum inhibitory concentration): 2 µg/mL; Minimum inhibitory concentration (S. pneumoniae ATCC49619; in the presence of 0.1 mM AOAA): 0.5 µg/mL; Minimum inhibitory concentration (S. pneumoniae ATCC49619; [2]): 1 µg/mL; Minimum inhibitory concentration (S. pneumoniae ATCC49619; in the presence of 1 mM PAG): 2 µg/mL
CN1CCN(CCCN2c3ccccc3Sc3ccc(C(F)(F)F)cc32)CC1 [Trifluoperazine] | −372 | 
N.N.N.N.N.N.N.N.N.N.N.N.N.N.[Cl-].[Cl-].[Cl-].[Cl-].[Cl-].[Cl-].[O-2].[O-2].[Ru+3].[Ru+3].[Ru+4] [Ruthenium red] | −268 | 
CCCCC(CC)CNC(=N)NC(=N)NCCCCCCNC(=N)NC(=N)NCC(CC)CCCC (stereo not drawn) [Alexidine] | −216 | 
CCn1cc(C(=O)O)c(=O)c2ccc(C)nc21 [Nalidixic acid] | −183 | 
Cc1ncc([N+](=O)[O-])n1CC(O)CCl (stereo not drawn) [Ornidazole] | −203 | 
CO[C@@]1(NC(=O)C(C(=O)O)c2ccc(O)cc2)C(=O)N2C(C(=O)O)=C(CSc3nnnn3C)CO[C@@H]21 (stereo partly drawn) [Moxalactam] | −171 | 
NC(=O)c1cc[n+](CC2=C(C(=O)O)N3C(=O)[C@@H](NC(=O)[C@@H](c4ccccc4)S(=O)(=O)[O-])[C@H]3SC2)cc1 [Cefsulodin] | −201 | 
CC(C)NCC(O)COc1cccc2ccccc12 (stereo not drawn) [Propranolol] | −263 | 
Poly-L-lysine | −377 | 
N[C@H](CO)C(=O)O [D-Serine] | −398 | 
COc1cc(Cc2cnc(N)nc2N)cc(OC)c1OC [Trimethoprim] | −212 | 
Oc1c(Cl)c(Cl)c(Cl)c(Cl)c1Cl [Pentachlorophenol] | −287 | 
CC[C@H]1OC(=O)C[C@@H](O)[C@H](C)[C@@H](O[C@@H]2O[C@H](C)[C@@H](O[C@H]3C[C@@](C)(O)[C@@H](O)[C@H](C)O3)[C@H](N(C)C)[C@H]2O)[C@@H](CC=O)C[C@@H](C)C(=O)/C=C/C(C)=C/[C@@H]1CO[C@@H]1O[C@H](C)[C@@H](O)[C@@H](OC)[C@H]1OC [Tylosin] | −520 | 
CN[C@@H]1[C@@H](O[C@H]2O[C@H](CO)[C@@H](N)[C@H](O)[C@H]2O)OC2C[C@@H](N)[C@@H](O[C@H]3[C@H](O)[C@@H](O)[C@H](N)C[C@@H]3N)OC2[C@@H]1O (stereo partly drawn) [Apramycin] | −179 | 
CCCCCCCCCCCC[N+](C)(C)C.[Br-] [Dodecyltrimethyl ammonium bromide] | −225 | 
NC(CO)C(=O)NNCc1ccc(O)c(O)c1O (stereo not drawn) [Benserazide] | −336 | 
CN(CC[C@H](N)CC(=O)N[C@H]1C=C[C@H](n2ccc(N)nc2=O)O[C@@H]1C(=O)O)C(=N)N [Blasticidin S] | −185 | 
CCN(CC)C(=S)SSC(=S)N(CC)CC [Disulfiram] | −246 | 
Cn1c(=O)c2c(ncn2C)n(C)c1=O [Caffeine] | −173 | 
N#CC(C#N)=NNc1ccc(OC(F)(F)F)cc1 [FCCP] |  | ΔsseA inhibition of growth [1]: −460
Cn1cnc([N+](=O)[O-])c1Sc1ncnc2nc[nH]c12 [Azathioprine] | −341 | 
CC(C(=O)O)c1cccc(C(=O)c2ccccc2)c1 (stereo not drawn) [Ketoprofen] | −468 | 
N#CC(C#N)=NNc1cccc(Cl)c1 [CCCP] | −422 | 
O=S(=O)(F)Cc1ccccc1 [Phenyl-methylsulfonyl-fluoride (PMSF), Phenyl-methylsulfonyl-fluoride] | −194 | 

Compound | ΔsseA inhibition of growth [1, 3] | further results
CO[C@@H]1[C@@H](O[C@@H]2O[C@H](C)[C@@H](O[C@H]3C[C@@](C)(O)[C@@H](OC(=O)CC(C)C)[C@H](C)O3)[C@H](N(C)C)[C@H]2O)[C@@H](CC=O)C[C@@H](C)[C@@H](O)/C=C/C=C/C[C@@H](C)OC(=O)C[C@H]1OC(C)=O [Josamycin] | −294 | 
CN(C)CCC=C1c2ccccc2CCc2ccccc21 [Amitriptyline] | −422 | 
CC1(C)S[C@@H]2[C@H](NC(=O)Cc3ccccc3)C(=O)N2[C@H]1C(=O)O [Penicillin G] | −186 | 
Nc1ccc2cc3ccc(N)cc3nc2c1 [Proflavine] | −93 | 
Polymyxin B | −231 | 
O=P(O)(O)O [200 mM Sodium Phosphate pH 7, Sodium Phosphate] |  | ΔsseA inhibition of growth [1]: −497
O=C1C=C(O)C(=O)c2ccccc21 [Lawsone] | −330 | 
CSc1ccc2c(c1)N(CCC1CCCCN1C)c1ccccc1S2 (stereo not drawn) [Thioridazine] | −313 | 
Spiramycin | −235 | 
O=[N+]([O-])c1ccc(-n2nc(-c3ccccc3)n[n+]2-c2ccc(I)cc2)cc1.[Cl-] [Iodonitro tetrazolium violet] | −215 | 
Cc1onc(-c2ccccc2Cl)c1C(=O)N[C@@H]1C(=O)N2[C@@H]1SC(C)(C)[C@@H]2C(=O)O [Cloxacillin] | −182 | 
O=C(O)C=Cc1ccccc1 [Cinnamic acid] | −204 | 
CC(CN1c2ccccc2Sc2ccccc21)N(C)C (stereo not drawn) [Promethazine] | −262 | 
c1ccc(-c2nn(-c3ccccc3)[n+](-c3cccc4ccccc34)n2)cc1 [Tetrazolium violet] | −293 | 
CCS(=O)(=O)CCn1c([N+](=O)[O-])cnc1C [Tinidazole] | −223 | 
CC(=O)O[C@H]1C[C@@]2(C)[C@@H](C[C@@H](O)[C@H]3[C@@]4(C)CC[C@@H](O)[C@@H](C)[C@@H]4CC[C@@]32C)/C1=C(\CCC=C(C)C)C(=O)O [Fusidic acid] | −271 | 
O=c1ccc2ccccc2o1 [Coumarin] | −243 | 
CCN(CC)CC(=O)Nc1c(C)cccc1C [Lidocaine] | −269 | 
CCn1cc(C(=O)O)c(=O)c2cc3c(cc21)OCO3 [Oxolinic acid] | −117 | 
CCOc1ccc2ccccc2c1C(=O)N[C@@H]1C(=O)N2[C@@H]1SC(C)(C)[C@@H]2C(=O)O [Nafcillin] | −227 | 
CCN1CCN(C(=O)N[C@@H](C(=O)N[C@@H]2C(=O)N3C(C(=O)O)=C(CSc4nnnn4C)CS[C@H]23)c2ccc(O)cc2)C(=O)C1=O [Cefoperazone] | −159 | 
Colistin | −102 | 
CCCCCCCCCCCC[N+](C)(C)CCOc1ccccc1 [Domiphen bromide] | −250 | 
Acriflavine | −295 | 
CCCCCCCC[N+](C)(CCCCCCCC)CCCCCCCC.[Cl-] [Methyltrioctylammonium chloride] | −326 | 
